Laboratory results: the kinase profiling compilation of Christmann-Franck et al. (2016)

Key:
Conditions in all cases: compound 10.0 µM
[1] = molecular target: MKNK2 (human) (UniProt Q9HBH9)
[2] = molecular target: PBK (human) (UniProt Q96KB5)
[3] = molecular target: KDR (human) (UniProt P35968)
[4] = molecular target: MAP3K14 (human) (UniProt Q99558)
[5] = molecular target: CDK5 CDK5R1 p35 (human) (UniProt Q00535+Q15078)
[6] = molecular target: PRKD2 (human) (UniProt Q9BZL6)
[7] = molecular target: FYN (human) (UniProt P06241)
[8] = molecular target: MAP3K10 (human) (UniProt Q02779)
[9] = molecular target: ULK2 (human) (UniProt Q8IYT8)
[10] = molecular target: FGFR2 (human) (UniProt P21802)
[11] = molecular target: CDK6 CCND3 (human) (UniProt Q00534+P30281)
[12] = molecular target: CAMK4 (human) (UniProt Q16566)
[13] = molecular target: HCK (human) (UniProt P08631)
[14] = molecular target: FGFR1 (human) (UniProt P11362)
[15] = molecular target: PIM2 (human) (UniProt Q9P1W9)
[16] = molecular target: MARK2 (human) (UniProt Q7KZI7)
[17] = molecular target: GRK7 (human) (UniProt Q8WTQ7)
[18] = molecular target: EPHA8 (human) (UniProt P29322)
[19] = molecular target: MAP4K4 (human) (UniProt O95819)
[20] = molecular target: MAP2K1 (human) (UniProt Q02750)
[21] = molecular target: PRKX (human) (UniProt P51817)
[22] = molecular target: PAK4 (human) (UniProt O96013)
[23] = molecular target: CDK6 CCND1 (human) (UniProt Q00534+P24385)
[24] = molecular target: RAF1 (human) (UniProt P04049)
[25] = molecular target: PRKCZ (human) (UniProt Q05513)
[26] = molecular target: WNK2 (human) (UniProt Q9Y3S1)
[27] = molecular target: NTRK2 (human) (UniProt Q16620)
[28] = molecular target: PRKD3 (human) (UniProt O94806)
[29] = molecular target: PTK6 (human) (UniProt Q13882)
[30] = molecular target: EPHA6 (human) (UniProt Q9UF33)
[31] = molecular target: ACVRL1 (human) (UniProt P37023)
[32] = molecular target: BTK (human) (UniProt Q06187)
[33] = molecular target: CAMKK1 (human) (UniProt Q8N5S9)
[34] = molecular target: STK25 (human) (UniProt O00506)
[35] = molecular target: RPS6KA5 KD1 KD2 (human) (UniProt O75582)
[36] = molecular target: PIM3 (human) (UniProt Q86V86)
[37] = molecular target: CHEK2 (human) (UniProt O96017)
[38] = molecular target: EPHA1 (human) (UniProt P21709)
[39] = molecular target: MARK3 (human) (UniProt P27448)
[40] = molecular target: CSNK1G3 (human) (UniProt Q9Y6M4)
[41] = molecular target: JAK2 JH1 JH2 (human) (UniProt O60674)
[42] = molecular target: DCLK2 (human) (UniProt Q8N568)
[43] = molecular target: MAP2K2 (human) (UniProt P36507)
[44] = molecular target: DYRK4 (human) (UniProt Q9NR20)
Chain of DYRK4 (human) (Q9NR20 whole entry, looked up): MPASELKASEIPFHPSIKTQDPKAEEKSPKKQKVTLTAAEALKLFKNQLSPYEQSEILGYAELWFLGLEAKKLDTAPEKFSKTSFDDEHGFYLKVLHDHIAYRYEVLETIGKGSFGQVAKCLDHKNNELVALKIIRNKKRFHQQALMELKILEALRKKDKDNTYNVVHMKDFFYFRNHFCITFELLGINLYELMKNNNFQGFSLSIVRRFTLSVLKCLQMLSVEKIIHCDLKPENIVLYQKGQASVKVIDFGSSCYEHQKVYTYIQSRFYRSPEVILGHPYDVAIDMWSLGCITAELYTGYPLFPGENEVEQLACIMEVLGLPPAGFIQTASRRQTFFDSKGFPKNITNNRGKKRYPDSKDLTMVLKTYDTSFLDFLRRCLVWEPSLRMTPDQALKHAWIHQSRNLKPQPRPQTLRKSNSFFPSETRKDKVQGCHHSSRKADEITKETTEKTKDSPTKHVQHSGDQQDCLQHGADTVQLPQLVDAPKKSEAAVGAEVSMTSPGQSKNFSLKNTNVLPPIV

Chain of CSNK1G3 (human) (Q9Y6M4 whole entry, looked up): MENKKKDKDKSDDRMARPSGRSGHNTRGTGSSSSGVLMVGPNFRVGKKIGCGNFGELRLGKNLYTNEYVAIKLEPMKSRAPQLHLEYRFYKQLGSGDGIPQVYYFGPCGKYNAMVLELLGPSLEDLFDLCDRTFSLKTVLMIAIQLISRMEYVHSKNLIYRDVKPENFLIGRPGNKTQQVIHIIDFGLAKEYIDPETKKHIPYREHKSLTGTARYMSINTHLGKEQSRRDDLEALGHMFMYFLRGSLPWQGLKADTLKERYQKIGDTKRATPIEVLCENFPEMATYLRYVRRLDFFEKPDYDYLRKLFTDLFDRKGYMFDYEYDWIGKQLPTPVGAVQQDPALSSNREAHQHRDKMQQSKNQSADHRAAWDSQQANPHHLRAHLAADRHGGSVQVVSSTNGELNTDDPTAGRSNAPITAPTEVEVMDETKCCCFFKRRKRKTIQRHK
Chain of MAP3K14 (human) (Q99558 whole entry, looked up): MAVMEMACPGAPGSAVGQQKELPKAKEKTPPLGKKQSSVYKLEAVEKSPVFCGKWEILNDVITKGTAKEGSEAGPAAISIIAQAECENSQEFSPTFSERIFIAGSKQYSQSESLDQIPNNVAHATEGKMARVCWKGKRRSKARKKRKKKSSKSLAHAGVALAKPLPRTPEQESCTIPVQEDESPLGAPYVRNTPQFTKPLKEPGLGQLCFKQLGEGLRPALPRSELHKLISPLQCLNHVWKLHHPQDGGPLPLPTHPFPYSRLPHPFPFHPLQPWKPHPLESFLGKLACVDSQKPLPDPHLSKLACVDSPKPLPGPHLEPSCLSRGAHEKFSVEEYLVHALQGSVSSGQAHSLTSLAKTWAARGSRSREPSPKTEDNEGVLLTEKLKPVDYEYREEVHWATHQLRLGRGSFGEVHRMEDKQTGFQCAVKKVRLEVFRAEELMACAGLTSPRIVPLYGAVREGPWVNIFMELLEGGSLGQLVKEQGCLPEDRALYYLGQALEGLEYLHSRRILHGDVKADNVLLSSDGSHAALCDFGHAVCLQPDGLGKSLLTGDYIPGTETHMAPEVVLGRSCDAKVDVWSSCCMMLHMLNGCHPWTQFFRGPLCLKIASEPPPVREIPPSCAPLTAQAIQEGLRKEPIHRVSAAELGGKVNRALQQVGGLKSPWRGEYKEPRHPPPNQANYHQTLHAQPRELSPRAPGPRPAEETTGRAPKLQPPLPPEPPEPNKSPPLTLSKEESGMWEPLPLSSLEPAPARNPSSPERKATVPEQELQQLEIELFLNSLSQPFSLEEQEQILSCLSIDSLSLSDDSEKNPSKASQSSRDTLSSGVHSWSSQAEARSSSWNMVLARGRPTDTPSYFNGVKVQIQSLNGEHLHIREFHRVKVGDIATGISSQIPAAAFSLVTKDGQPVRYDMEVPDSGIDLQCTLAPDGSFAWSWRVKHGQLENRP
Chain of HCK (human) (P08631 whole entry, looked up): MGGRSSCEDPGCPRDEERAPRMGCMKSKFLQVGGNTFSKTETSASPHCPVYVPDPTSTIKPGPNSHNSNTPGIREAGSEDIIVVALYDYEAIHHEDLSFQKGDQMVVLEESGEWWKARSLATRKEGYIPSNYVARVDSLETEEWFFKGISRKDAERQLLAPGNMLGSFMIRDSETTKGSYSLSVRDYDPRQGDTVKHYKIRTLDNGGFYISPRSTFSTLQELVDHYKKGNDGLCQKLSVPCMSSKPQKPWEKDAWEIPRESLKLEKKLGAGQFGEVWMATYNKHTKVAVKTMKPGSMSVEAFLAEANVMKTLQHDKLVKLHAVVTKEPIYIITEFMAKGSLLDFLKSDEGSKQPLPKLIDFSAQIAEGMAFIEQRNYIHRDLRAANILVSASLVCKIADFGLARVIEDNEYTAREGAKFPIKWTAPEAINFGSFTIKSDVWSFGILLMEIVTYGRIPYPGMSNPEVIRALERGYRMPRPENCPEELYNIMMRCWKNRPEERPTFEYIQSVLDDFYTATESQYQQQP
Chain of CDK6 CCND3 (human) (P30281 whole entry, looked up): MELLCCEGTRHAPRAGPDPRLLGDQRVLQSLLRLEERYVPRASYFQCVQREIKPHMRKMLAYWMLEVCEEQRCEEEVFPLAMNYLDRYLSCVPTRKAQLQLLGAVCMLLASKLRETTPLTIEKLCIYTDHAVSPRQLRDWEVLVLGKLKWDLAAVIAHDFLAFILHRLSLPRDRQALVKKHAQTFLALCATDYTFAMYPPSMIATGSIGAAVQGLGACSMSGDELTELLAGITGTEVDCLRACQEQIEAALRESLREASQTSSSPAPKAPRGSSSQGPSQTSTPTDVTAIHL
Chain of CDK6 CCND3 (human) (Q00534 whole entry, looked up): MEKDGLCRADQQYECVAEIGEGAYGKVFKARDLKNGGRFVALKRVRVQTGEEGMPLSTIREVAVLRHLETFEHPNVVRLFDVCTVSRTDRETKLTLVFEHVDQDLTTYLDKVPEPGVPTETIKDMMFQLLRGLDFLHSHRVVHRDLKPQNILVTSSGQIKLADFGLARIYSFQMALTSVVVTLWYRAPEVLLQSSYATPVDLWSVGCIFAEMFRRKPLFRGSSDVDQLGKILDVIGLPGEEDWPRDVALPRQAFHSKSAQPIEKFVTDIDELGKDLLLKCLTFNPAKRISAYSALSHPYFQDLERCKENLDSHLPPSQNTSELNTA
Chain of MKNK2 (human) (Q9HBH9 whole entry, looked up): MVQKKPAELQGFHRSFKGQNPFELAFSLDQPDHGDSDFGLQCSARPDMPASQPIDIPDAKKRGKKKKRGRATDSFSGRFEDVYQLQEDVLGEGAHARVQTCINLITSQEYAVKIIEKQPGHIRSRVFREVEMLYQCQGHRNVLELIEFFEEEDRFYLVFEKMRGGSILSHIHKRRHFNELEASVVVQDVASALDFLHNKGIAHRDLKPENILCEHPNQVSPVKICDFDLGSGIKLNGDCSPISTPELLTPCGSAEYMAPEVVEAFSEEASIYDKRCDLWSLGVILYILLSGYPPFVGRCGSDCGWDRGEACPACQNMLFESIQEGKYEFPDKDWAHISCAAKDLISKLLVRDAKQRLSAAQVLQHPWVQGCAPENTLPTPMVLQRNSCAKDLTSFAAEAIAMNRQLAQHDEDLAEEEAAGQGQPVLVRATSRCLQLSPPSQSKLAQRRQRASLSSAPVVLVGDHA
Chain of PAK4 (human) (O96013 whole entry, looked up): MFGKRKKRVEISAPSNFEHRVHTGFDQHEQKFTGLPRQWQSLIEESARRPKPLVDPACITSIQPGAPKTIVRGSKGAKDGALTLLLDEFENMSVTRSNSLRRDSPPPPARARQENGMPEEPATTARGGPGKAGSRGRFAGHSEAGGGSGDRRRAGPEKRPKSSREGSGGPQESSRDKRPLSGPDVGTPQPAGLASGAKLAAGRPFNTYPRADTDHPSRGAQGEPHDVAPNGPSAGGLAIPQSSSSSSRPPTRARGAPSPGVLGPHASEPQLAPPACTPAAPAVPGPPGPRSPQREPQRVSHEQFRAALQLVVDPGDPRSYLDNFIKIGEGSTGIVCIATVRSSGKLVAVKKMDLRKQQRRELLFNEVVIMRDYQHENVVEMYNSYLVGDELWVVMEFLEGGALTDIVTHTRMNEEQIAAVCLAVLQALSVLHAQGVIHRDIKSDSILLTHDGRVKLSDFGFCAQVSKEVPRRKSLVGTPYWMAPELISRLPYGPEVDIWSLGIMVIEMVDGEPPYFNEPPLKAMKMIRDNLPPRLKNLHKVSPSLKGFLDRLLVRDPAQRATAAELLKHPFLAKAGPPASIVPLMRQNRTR
Chain of PBK (human) (Q96KB5 whole entry, looked up): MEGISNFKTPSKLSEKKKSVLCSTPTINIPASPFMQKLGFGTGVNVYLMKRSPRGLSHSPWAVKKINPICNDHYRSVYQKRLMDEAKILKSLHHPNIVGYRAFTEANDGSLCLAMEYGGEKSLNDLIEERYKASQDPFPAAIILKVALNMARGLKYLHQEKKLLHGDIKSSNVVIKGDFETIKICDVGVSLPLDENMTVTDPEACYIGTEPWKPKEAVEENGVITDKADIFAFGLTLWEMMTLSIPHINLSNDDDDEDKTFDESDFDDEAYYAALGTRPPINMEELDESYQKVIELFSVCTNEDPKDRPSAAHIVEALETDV
Chain of PTK6 (human) (Q13882 whole entry, looked up): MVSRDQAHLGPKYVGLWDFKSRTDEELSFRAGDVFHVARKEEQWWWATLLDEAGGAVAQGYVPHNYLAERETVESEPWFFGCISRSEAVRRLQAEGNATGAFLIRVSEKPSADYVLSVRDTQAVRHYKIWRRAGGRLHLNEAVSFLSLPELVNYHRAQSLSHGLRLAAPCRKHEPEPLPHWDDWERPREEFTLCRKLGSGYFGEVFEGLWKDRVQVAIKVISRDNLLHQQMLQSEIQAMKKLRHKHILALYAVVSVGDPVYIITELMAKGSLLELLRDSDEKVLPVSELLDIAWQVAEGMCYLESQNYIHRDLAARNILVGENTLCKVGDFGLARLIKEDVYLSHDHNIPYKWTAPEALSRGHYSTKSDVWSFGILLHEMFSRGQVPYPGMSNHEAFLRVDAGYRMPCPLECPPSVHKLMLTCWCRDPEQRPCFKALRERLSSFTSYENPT

## CC[C@H](C)n1cc(C)c2c(C(=O)NCc3c(C)cc(C)[nH]c3=O)cc(-c3ccc(N4CCNCC4)nc3)cc21
[1]
  residual activity: 98%
[2]
  residual activity: 94%
[3]
  residual activity: 104%
[4]
  residual activity: 99%
[5]
  residual activity: 103%
[6]
  residual activity: 98%
[7]
  residual activity: 100%
[8]
  residual activity: 103%
[9]
  residual activity: 99.5%
[10]
  residual activity: 98.5%
[11]
  residual activity: 102%
[12]
  residual activity: 87.5%
[13]
  residual activity: 101%
[14]
  residual activity: 84.5%
[15]
  residual activity: 99%
[16]
  residual activity: 92.5%
[17]
  residual activity: 97.5%
[18]
  residual activity: 89%
[19]
  residual activity: 102%
[20]
  residual activity: 102%
[21]
  residual activity: 80.5%
[22]
  residual activity: 97.5%
[23]
  residual activity: 106%
[24]
  residual activity: 97%
[25]
  residual activity: 99.5%
[26]
  residual activity: 93%
[27]
  residual activity: 99%
[28]
  residual activity: 102%
[29]
  residual activity: 93%
[30]
  residual activity: 90%
[31]
  residual activity: 98%
[32]
  residual activity: 103%
[33]
  residual activity: 96%
[34]
  residual activity: 93%
[35]
  residual activity: 108%
[36]
  residual activity: 93.5%
[37]
  residual activity: 71%
[38]
  residual activity: 104%
[39]
  residual activity: 110%
[40]
  residual activity: 98%
[41]
  residual activity: 91.5%
[42]
  residual activity: 104%
[43]
  residual activity: 102%
[44]
  residual activity: 98.5%
